We go through 6 compounds from article PMC9127117, “Towards discovery of inhibitors of the undecaprenyl-pyrophosphate phosphatase BacA by virtual high-throughput screening” (Computational and Structural Biotechnology Journal, 2022).

Entries after “also recorded” stand apart in the source; their conditions may differ.

In assay [1] the test system is DMEG9 strain, alias BWbacA-single. Put plainly: Growth inhibition in 2YT liquid medium. It counts as cell-based, E. coli. The following applies: PAP2-depleted DMEG9; 500 µM compound. Here is the method:
(§1) For compounds displaying inhibitory activity on BacA catalysis, their antibacterial activity was tested on different E. coli strains by monitoring bacterial growth in the presence of compounds (125, 250 and 500 µM). One colony was cultured in 10 ml of 2YT liquid medium and incubated at 37℃ for 6 h. The absorbance of the culture at 600 nm (A600) was measured to prepare a bacterial suspension in 2YT liquid medium at 15.10^6 CFU/ml (A600 = 1 corresponds to 3.10^8 CFU/ml). The bacterial suspension (200-µl) was then grown on 96-well plates in the presence or not of compounds (5-µl), which was added from a stock solution prepared in DMSO. Negative controls were then performed by growing the cells without inhibitors in 2YT medium and in 2YT medium supplemented with 2.5% of DMSO. The plates were incubated at 37℃ overnight with A600 measurements every 10 min using a Tecan F200 PRO microplate reader (iControl software).
(§2) Two compounds, 3 and 5, were assessed for antibacterial activity using the broth microdilution method against the E. coli BW25113 wild type strain. […] Considering the plurality of C55-PP phosphatases in E. coli, the inhibition of BacA may not induce growth inhibition as long as the PAP2 enzymes (PgpB, YbjG, and LpxT) are functional. Consequently, compounds 3 and 5 were tested against a BW25113 variant in which the PAP2 enzymes were depleted (DMEG9 strain, alias BWbacA-single). […]

Another assay has as its target BacA (Escherichia coli, UniProt P60932). The following applies: for IC50 / BacA RA (%): 50 µM C55-PP, 5 nM BacA; for IC50: average of at least three experiments; for BacA RA (%): residual activity in the presence of 100 µM compound, 10 min 37 °C. As for the experimental part: C43(DE3) cells carrying pTrcBac30 plasmid were used for the expression of N-terminally His6-tagged BacA (His6-BacA) protein from E. coli. Cells were grown in 2YT-ampicillin at 37 °C and when the OD600 reached 0.9, the temperature of the culture was decreased to 22 °C and protein expression was induced by addition of 1 mM IPTG. Incubation was continued overnight at 22 °C and bacteria were harvested in the cold and washed in a buffer containing 20 mM Tris-HCl, pH 7.4, 0.4 M NaCl, 10% glycerol and 10 mM β-mercaptoethanol (buffer A). The cells were disrupted by three successive passages through a French press and the suspension was centrifuged at 200,000× g, 4 °C for 45 min. The pellet of membranes was washed with buffer A. The membranes were resuspended in buffer A supplemented by 2% DDM detergent. This mixture was incubated for 2 h at 4 °C under agitation before being centrifuged as described above. The supernatant containing solubilised membrane proteins was used for the purification of His6-BacA on Ni^2+-NTA-agarose. The supernatant was incubated overnight at 4 °C under agitation with 2 ml of Ni^2+-NTA-agarose polymer pre-equilibrated with buffer A supplemented with 10 mM imidazole and 0.2% DDM. The mixture was then transferred into a Poly-prep chromatography column (Biorad) and the polymer was washed with 50 ml of buffer A containing 0.2% DDM and successively 10 and 30 mM imidazole. The elution of BacA was then performed with buffer A containing 0.2% DDM and 400 mM imidazole. Fractions containing the BacA protein were subjected to an additional gel-filtration purification step on Superdex 200 (HiLoadTM 16/600 SuperdexTM 200) equilibrated in 0.1% DDM-containing buffer A. 1-ml fractions were collected and analysed by SDS-PAGE. Pure fractions were pooled and concentrated to 1 mg/ml (50000 MWCO concentrator, Vivaspin™ 20). […] PgpB was purified as previously described.
The C55-PP phosphatase activity of BacA was assessed by measuring the percentage of transformation of [^14C]C55-PP into [^14C]C55-P upon incubation with BacA by TLC analysis. The butanol from the [^14C]C55-PP solution was dried under vacuum so as to evaporate the organic solvent and to recover C55-PP as a lipidic film. […] The compounds (1 µL) were added to the reaction mixture at 100 µM final concentration (at the first instance) from a 2 mM stock solution prepared in DMSO. A blank experiment without compound, but with 1 µL DMSO, was performed in order to determine the 100 % of BacA activity to which all other experiments were compared. BacA (2 µL) was then added at a final concentration of 5 nM from a dilution solution prepared in the reaction buffer. The concentration of enzyme was fixed so that the consumption of substrate at the end of the incubation time in the control was less than 30%. The reaction mixture was incubated for 10 min at 37 °C and the catalysis was stopped by freezing in liquid nitrogen. The radiolabelled substrate (C55-PP) and product (C55-P) were separated by TLC on pre-coated plates of silica gel 60 (Merck) using propanol/ammonium hydroxide/water (6:3:1, v/v/v) as a mobile phase. The radioactive spots were located and quantified with a radioactivity scanner. […] Dose-response curves were plotted as BacA residual activity (RA) versus the logarithms of inhibitor concentration. […] Reported values are the average of at least three experiments. The C55-PP phosphatase activity of PgpB was measured as described for BacA.
The activity of BacA was then investigated by monitoring the initial velocity of [^14C]C55-PP dephosphorylation, as described in Material and methods section. […] The compounds were prepared as 2 mM DMSO stock solutions, resulting in a 5 % final concentration of DMSO in the reaction mixture.

The subject of assay [2] is BWbacA-singleΔtolC strain overexpressing an ectopic copy of the bacA gene on a plasmid. Put plainly: Growth inhibition upon bacA overexpression. The following applies: bacA overexpressed in trans; 500 µM compound. In kind it is cell-based, E. coli. Here is the method:
as §1
(§3) To further assess the specificity of compounds 3 and 5 with respect to BacA, they were tested against the strain depleted of both TolC and PAP2 but overexpressing an ectopic copy of the bacA gene on a plasmid.

The test system of assay [3] is E. coli BW25113 wild type strain. The assay is described as follows: Growth inhibition in 2YT liquid medium. It counts as cell-based. The conditions noted are these: 500 µM compound. Here is the method:
as §1, §2

In a further assay the test system is BWΔbacAΔtolC strain. Put plainly: Growth inhibition in 2YT liquid medium. In kind it is cell-based, E. coli. The following applies: BacA and TolC depleted; 500 µM compound. As for the experimental part: (§4) Bacteria were grown in 2YT broth supplemented, when required, with ampicillin or kanamycin at concentrations of 100 and 50 µg/ml, respectively. The BWΔtolC strain was obtained from the Keio collection. The BWΔbacAΔtolC and BWbacA-singleΔtolC were generated by P1 transduction of the ΔtolC::Kan^R cassette from BWΔtolC strain to BWΔbacA and DMEG9 recipient strains, respectively. The strains S. aureus RN4220 and S. pneumoniae R6 were used to evaluate the antibacterial activity of certain compounds. S. aureus was grown on BHI (Brain Heart Infusion) broth and S. pneumoniae was grown on Colombia broth supplemented with 5% horse blood.
For compounds displaying inhibitory activity on BacA catalysis, their antibacterial activity was tested on different E. coli strains by monitoring bacterial growth in the presence of compounds (125, 250 and 500 µM). One colony was cultured in 10 ml of 2YT liquid medium and incubated at 37℃ for 6 h. The absorbance of the culture at 600 nm (A600) was measured to prepare a bacterial suspension in 2YT liquid medium at 15.10^6 CFU/ml (A600 = 1 corresponds to 3.10^8 CFU/ml). […] The plates were incubated at 37℃ overnight with A600 measurements every 10 min using a Tecan F200 PRO microplate reader (iControl software). […]

The subject of assay [4] is BWbacA-singleΔtolC strain. Put plainly: Growth inhibition / MIC in 2YT liquid medium. In kind it is cell-based, E. coli. The following applies: for MIC: BWbacA-singleΔtolC strain; for class of antibacterial activity (Figure S2): BWΔtolC and BWbacA-singleΔtolC strains, 250 and 500 µM; for growth inhibition: TolC/PAP2-depleted BWbacA-singleΔtolC, 500 µM compound. Here is the method:
as §4, §1

The next assay concerns BWΔtolC strain. The assay is described as follows: Growth inhibition in 2YT liquid medium (off-target activity). It counts as cell-based, E. coli. The following applies: for growth inhibition: TolC-depleted BWΔtolC; for Off-target activity: antibacterial activity against BWΔtolC. As for the experimental part:
as §4, §1

Assay [5] has as its system BWbacA-singleΔtolC strain carrying the empty vector (pTRCH30). The assay is described as follows: Growth inhibition, control strain carrying the empty vector. In kind it is cell-based, E. coli. The following applies: 500 µM compound. Here is the method: as §1, §3
A further assay deals with S. pneumoniae R6. Put plainly: Double-disc diffusion test with bacitracin. It counts as cell-based. The following applies: 130 µg bacitracin disc alone. As for the experimental part:
To evaluate the antibacterial activity of the compounds per se or in combination with bacitracin, against S. aureus RN4220 and S. pneumoniae R6 strains, disc diffusion method was used according to the CLSI guidelines. Bacterial suspensions equivalent to 10^8 CFU/ml were prepared in 5 ml BHI broth. A BHI-agar plate (for S. aureus) or Colombia-agar plate supplemented with 5% Horse Blood (for S. pneumoniae) were then flooded with a bacterial suspension for 1 min to allow the bacteria to sediment before removing the excess of medium. The commercial discs loaded with 130 µg of bacitracin (Biorad) was positioned on top of the bacterial lawn at distances of 10 mm (center to center) from another sterile and blank disc, which was then loaded with 7 µL of a compound solution (50 µg). The plates were incubated at 37 °C for 24 h and the diameter of the growth inhibition zone was measured and a photo of the plates was acquired using a ChemiDoc™ MP System.
Figure S3. Test of antibacterial activity of BacA inhibitors against S. aureus RN4220 (A) and S. pneumonia R6 (B) strains. Bacitracin (130 µg)- and compound (50 µg)-loaded discs were positioned at 10 mm of distance on top of a bacterial lawn. The plates were incubated overnight at 37 °C. These images are representative of three independent tests. […]
For orientation: In agar diffusion tests the substance spreads into inoculated agar from a disc or well.

For orientation: IC50 means the concentration that gives 50% inhibition. What is called MIC is the least concentration at which growth counts as inhibited. A high value points to weaker potency.

Chain of BacA (P60932 whole entry): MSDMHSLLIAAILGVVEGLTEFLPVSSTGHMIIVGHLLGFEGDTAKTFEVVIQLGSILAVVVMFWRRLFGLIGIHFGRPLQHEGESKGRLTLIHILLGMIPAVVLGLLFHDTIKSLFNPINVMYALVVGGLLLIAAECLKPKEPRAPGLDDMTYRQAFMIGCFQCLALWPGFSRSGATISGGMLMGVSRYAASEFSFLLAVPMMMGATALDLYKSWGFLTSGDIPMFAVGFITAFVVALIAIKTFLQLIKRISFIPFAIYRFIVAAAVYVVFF

On to `O=C(O)c1csc(S(=O)(=O)Nc2ccc3[nH]c(=O)sc3c2)c1` [Compound 5], for which the growth inhibition entry is “no growth inhibition” in assay [1]; “No growth inhibition” in assay [3]; “no growth inhibition” in [4]; “did not lead to any growth inhibition; also recorded: no growth inhibition” in the assay on BWΔtolC strain (500 µM compound); “did not display any antibacterial activity” in [5]. Besides, half-maximal inhibition against BacA (IC50) was put at 338 ± 35 µM. The “BacA RA (%)” value at BacA is given as 76 ± 13%. The “growth inhibition upon bacA overexpression” value in assay [2] is on record as “did not display any antibacterial activity”. In addition, in the assay with BWΔbacAΔtolC strain, the “growth inhibition (BacA-independent activity)” value was “did not display any antibacterial activity”. The MIC was over 500 µM in [4] (125, 250 and 500 µM tested); “ND (no growth inhibition detected up to 500 µM compound)” in assay [4] (class symbol ND). For the same compound, the “class of antibacterial activity (Figure S2)” value (“class” below) in assay [4] was “without any antibacterial activity whatever the strain”. Also, in the assay with BWΔtolC strain, the Off-target activity result was “No”.

`O=C(O)c1csc(S(=O)(=O)Nc2ccc3ccccc3c2)c1` [Compound 6] showed an IC50 against BacA of 151 ± 13 µM. The “BacA RA (%)” value on BacA is reported as 70 ± 18%. In addition, the MIC in [4] came to 83 µg/mL; in assay [4] (125, 250 and 500 µM tested) it was 250 µM. In addition, the “class” value in [4] was “antibacterial activity on both strains”. For the same compound, the growth inhibition entry in [4] is “total growth inhibition”; with BWΔtolC strain (250 µM compound), “no effect”; in the assay with BWΔtolC strain (500 µM compound), “moderate inhibition”. Also, the Off-target activity result in the assay on BWΔtolC strain is on record as “Yes”.

Take `Cc1ccc(NS(=O)(=O)c2cc(C(=O)O)cs2)cc1C` [Compound 2]: at BacA, it took 132 ± 22 µM to reach half-maximal inhibition (IC50) and the “BacA RA (%)” value was 66± 17%. The “nature of the inhibition (compound versus substrate competition kinetics)” value on BacA (25 to 300 µM substrate, 200 µM compound) is given as “non-competitive inhibitors”. In [4], the MIC was found to be 155 µg/mL, the “class” value was “strong specificity towards BacA” and the growth inhibition entry is “total growth inhibition”. For the same compound, the MIC in assay [4] (125, 250 and 500 µM tested) is given as 500 µM. For the same compound, in the assay with BWΔtolC strain (500 µM compound), the growth inhibition result was “no effect”. Also, the Off-target activity result in the assay on BWΔtolC strain was “No”.

Regarding `O=C(O)c1csc(S(=O)(=O)Nc2ccc(SCc3cccnc3)cc2)c1` [Compound 1, 5-{p-[(3-pyridyl)methylthio]phenylaminosulfonyl}-3-thenoic acid], in assay [4], the “class” value is listed as “without any antibacterial activity whatever the strain”. Further, the MIC was over 500 µM in assay [4] (Escherichia coli, 125, 250 and 500 µM tested); over 500 µM in [4] (Escherichia coli, class symbol ND). Moreover, the growth inhibition entry in the assay with BWΔtolC strain (500 µM compound) is “no growth inhibition”. In addition, in the assay with BWΔtolC strain, the Off-target activity result is “No”.

Regarding `CC(C)Oc1ccc(NS(=O)(=O)c2cc(C(=O)O)cs2)cc1` [Compound 7], on BacA, the IC50 was 366 ± 73 µM and the “BacA RA (%)” value was found to be 80 ±10%. Moreover, in assay [4], the MIC came out at 170 µg/mL, the “class” value is on record as “strong specificity towards BacA” and the growth inhibition result is “total growth inhibition”. For the same compound, in assay [4] (125, 250 and 500 µM tested), the MIC was 500 µM. For the same compound, the growth inhibition entry in the assay with BWΔtolC strain (500 µM compound) is “no effect”. Also, the Off-target activity result in the assay with BWΔtolC strain was “No”.

As to bacitracin [reference compound], the “inhibition zone of bacitracin” value with S. pneumoniae R6 is recorded as 7.5 mm.
